≈ marks a conversion by molar mass, not a printed value.
Experiments:
Enterococcus faecalis [1] = assay: Antibacterial activity against Enterococcus faecalis ATCC 29212 assessed as bacterial growth inhibition at 50 uM incubated for 24 hrs by CLSI protocol based broth microdilution assay relative to control; format: functional
Klebsiella pneumoniae = assay: Antibacterial activity against Klebsiella pneumoniae ATCC 700603 assessed as bacterial growth inhibition at 50 uM incubated for 24 hrs by CLSI protocol based broth microdilution assay relative to control; format: functional
Acinetobacter baumannii = assay: Antibacterial activity against Acinetobacter baumannii ATCC 19606 assessed as bacterial growth inhibition at 50 uM incubated for 24 hrs by CLSI protocol based broth microdilution assay relative to control; format: functional; conditions: ATCC 19606 = CIP 70.34 = JCM 6841
Escherichia coli [2] = assay: Antibacterial activity against Escherichia coli ATCC 25922 assessed as bacterial growth inhibition at 50 uM incubated for 24 hrs by CLSI protocol based broth microdilution assay relative to control; format: functional
Escherichia coli [3] = assay: Antibacterial activity against outer membrane impaired Escherichia coli JD17464 harboring lpxC mutant assessed as bacterial growth inhibition at 50 uM incubated for 24 hrs by CLSI protocol based broth microdilution assay relative to control; format: functional
Enterococcus faecium [4] = assay: Antibacterial activity against Enterococcus faecium ATCC 35667 assessed as bacterial growth inhibition at 50 uM incubated for 24 hrs by CLSI protocol based broth microdilution assay relative to control; format: functional
Enterococcus faecalis [5] = assay: Antibacterial activity against Enterococcus faecalis ATCC 29212 assessed as minimum inhibitory concentration required for >=90% inhibition of bacterial growth by CLSI protocol based broth microdilution assay; format: functional
Staphylococcus aureus = assay: Antibacterial activity against Staphylococcus aureus ATCC 29213 assessed as bacterial growth inhibition at 50 uM incubated for 24 hrs by CLSI protocol based broth microdilution assay relative to control; format: functional
Pseudomonas aeruginosa = assay: Antibacterial activity against Pseudomonas aeruginosa ATCC 27853 assessed as bacterial growth inhibition at 50 uM incubated for 24 hrs by CLSI protocol based broth microdilution assay relative to control; format: functional
[6] = target: DNA gyrase (Escherichia coli) (UniProt P0AES6+P0AES4); assay: Inhibition of Escherichia coli DNA gyrase assessed as residual activity at 1 uM using biotinylated oligonucleotide as substrate incubated for 30 mins in presence of ATP by fluorescence-based microplate reader assay relative to control; format: protein-complex assay
Klebsiella aerogenes = assay: Antibacterial activity against Enterobacter aerogenes ATCC 13408 assessed as bacterial growth inhibition at 50 uM incubated for 24 hrs by CLSI protocol based broth microdilution assay relative to control; format: functional
Escherichia coli [7] = assay: Antibacterial activity against efflux pump d effect ive Escherichia coli JW5503 harbouring tolC mutant assessed as bacterial growth inhibition at 50 uM incubated for 24 hrs by CLSI protocol based broth microdilution assay relative to control; format: functional
[8] = Cytotoxicity against human HepG2 cells assessed as reduction in cell proliferation at 50 uM after 72 hrs by MTS assay relative to control; format: cell-based; conditions: read-out: Activity
DNA gyrase [9] = target: DNA gyrase (Escherichia coli, UniProt P0AES4+P0AES6); assay: Inhibition of Escherichia coli DNA gyrase using biotinylated oligonucleotide as substrate incubated for 30 mins in presence of ATP by fluorescence-based microplate reader assay; format: protein-complex assay
[10] = Cytotoxicity against HUVEC assessed as reduction in cell proliferation at 50 uM after 72 hrs by MTS assay relative to control; format: cell-based; conditions: human, HUVEC cells, read-out: Activity
Escherichia coli [11] = assay: Antibacterial activity against efflux pump d effect ive Escherichia coli JW5503 harbouring tolC mutant assessed as minimum inhibitory concentration required for >=90% inhibition of bacterial growth by CLSI protocol based broth microdilution assay; format: functional
Enterococcus faecium [12] = assay: Antibacterial activity against Enterococcus faecium ATCC 35667 assessed as minimum inhibitory concentration required for >=90% inhibition of bacterial growth by CLSI protocol based broth microdilution assay; format: functional
Topoisomerase IV = Topoisomerase IV (Staphylococcus aureus, UniProt P0C1S7+P0C1U9); assay: Inhibition of Staphylococcus aureus DNA topoisomerase 4 using biotinylated oligonucleotide as substrate incubated for 30 mins in presence of ATP by fluorescence-based microplate reader assay; format: protein-complex assay
Topoisomerase IV, sequence (P0C1U9 whole entry): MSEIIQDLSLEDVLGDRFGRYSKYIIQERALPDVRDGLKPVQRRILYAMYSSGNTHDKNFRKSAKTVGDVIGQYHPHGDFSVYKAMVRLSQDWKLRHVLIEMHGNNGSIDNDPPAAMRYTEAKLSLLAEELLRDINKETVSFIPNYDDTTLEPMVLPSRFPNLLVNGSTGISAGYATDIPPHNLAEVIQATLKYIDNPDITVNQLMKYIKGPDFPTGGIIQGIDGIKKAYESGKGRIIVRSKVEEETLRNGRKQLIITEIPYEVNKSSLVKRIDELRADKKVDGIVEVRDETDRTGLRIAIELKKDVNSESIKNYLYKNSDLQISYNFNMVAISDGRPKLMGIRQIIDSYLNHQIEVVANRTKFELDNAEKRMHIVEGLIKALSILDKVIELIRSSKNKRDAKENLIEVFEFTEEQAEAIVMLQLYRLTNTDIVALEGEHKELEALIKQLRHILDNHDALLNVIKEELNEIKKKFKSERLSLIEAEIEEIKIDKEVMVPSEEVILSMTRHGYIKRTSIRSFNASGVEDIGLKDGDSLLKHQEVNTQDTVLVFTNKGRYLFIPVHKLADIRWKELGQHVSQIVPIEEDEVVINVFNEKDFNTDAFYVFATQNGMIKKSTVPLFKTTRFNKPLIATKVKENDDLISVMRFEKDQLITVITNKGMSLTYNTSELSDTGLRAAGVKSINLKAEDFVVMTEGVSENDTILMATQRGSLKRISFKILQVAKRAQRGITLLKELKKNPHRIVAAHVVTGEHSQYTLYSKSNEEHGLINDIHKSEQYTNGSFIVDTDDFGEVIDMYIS
Topoisomerase IV, sequence (P0C1S7 whole entry): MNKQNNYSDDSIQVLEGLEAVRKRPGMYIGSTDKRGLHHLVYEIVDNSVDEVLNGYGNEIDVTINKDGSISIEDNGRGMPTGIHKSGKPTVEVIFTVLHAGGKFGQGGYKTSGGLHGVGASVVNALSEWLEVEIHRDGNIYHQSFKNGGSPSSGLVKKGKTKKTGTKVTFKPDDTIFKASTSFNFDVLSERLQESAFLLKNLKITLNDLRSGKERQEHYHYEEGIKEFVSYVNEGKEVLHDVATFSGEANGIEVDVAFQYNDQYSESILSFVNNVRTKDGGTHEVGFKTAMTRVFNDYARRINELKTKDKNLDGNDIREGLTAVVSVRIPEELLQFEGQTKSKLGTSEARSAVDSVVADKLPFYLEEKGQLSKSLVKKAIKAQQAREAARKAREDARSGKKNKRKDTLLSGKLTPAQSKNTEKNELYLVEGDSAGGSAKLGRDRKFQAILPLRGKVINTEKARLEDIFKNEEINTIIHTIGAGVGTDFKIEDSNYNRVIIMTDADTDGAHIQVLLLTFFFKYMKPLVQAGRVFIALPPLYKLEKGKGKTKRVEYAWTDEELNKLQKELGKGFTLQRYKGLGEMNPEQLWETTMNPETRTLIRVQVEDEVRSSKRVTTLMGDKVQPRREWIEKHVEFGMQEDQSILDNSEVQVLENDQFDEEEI

DNA gyrase [13] = target: DNA gyrase (Staphylococcus aureus, UniProt P0A0K8+P20831); assay: Inhibition of Staphylococcus aureus DNA gyrase using biotinylated oligonucleotide as substrate incubated for 30 mins in presence of ATP by fluorescence-based microplate reader assay; format: protein-complex assay
DNA gyrase (Staphylococcus aureus, UniProt P0A0K8+P20831), sequence (P0A0K8 whole entry): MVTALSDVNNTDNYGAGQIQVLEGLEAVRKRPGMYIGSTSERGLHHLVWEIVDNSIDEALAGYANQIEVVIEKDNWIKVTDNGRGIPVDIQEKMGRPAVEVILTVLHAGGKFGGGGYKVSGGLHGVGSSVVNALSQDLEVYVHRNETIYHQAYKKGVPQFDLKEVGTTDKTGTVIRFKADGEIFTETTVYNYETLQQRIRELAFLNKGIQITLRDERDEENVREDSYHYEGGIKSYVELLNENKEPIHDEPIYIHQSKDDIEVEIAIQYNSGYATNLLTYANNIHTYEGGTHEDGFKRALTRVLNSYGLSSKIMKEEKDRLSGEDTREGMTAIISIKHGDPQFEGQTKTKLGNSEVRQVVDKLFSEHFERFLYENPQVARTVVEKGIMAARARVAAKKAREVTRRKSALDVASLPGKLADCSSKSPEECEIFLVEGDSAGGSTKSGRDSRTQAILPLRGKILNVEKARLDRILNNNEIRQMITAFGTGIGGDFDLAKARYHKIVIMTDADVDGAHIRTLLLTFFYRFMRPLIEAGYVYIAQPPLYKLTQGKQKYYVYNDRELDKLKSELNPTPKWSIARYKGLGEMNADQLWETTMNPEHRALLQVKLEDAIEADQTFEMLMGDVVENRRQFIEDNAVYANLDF
DNA gyrase (Staphylococcus aureus, UniProt P0A0K8+P20831), sequence (P20831 whole entry): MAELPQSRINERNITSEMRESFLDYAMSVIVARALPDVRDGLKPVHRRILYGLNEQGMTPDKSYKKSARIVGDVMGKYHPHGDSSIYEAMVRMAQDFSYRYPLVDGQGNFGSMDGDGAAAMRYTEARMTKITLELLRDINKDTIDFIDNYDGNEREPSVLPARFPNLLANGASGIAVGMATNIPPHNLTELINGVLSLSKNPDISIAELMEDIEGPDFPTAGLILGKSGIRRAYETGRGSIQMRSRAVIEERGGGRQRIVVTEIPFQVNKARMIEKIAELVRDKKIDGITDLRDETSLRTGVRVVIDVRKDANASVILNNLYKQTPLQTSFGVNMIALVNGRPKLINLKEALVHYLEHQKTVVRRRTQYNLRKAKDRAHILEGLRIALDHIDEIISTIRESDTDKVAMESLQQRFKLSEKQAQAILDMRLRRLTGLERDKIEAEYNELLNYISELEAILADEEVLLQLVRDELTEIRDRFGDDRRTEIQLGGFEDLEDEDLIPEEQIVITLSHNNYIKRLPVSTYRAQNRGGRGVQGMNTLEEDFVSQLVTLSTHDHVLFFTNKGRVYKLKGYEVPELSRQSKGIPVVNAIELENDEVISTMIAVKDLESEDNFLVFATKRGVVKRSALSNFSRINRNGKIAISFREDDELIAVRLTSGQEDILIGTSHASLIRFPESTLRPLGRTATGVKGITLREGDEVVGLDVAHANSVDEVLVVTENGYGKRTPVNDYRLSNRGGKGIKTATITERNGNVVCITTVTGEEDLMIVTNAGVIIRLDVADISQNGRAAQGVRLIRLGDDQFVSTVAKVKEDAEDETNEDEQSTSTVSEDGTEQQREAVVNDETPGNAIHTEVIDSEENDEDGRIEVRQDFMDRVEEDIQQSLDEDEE

[14] = Inhibition of Escherichia coli DNA topoisomerase 4 using biotinylated oligonucleotide as substrate incubated for 30 mins in presence of ATP by fluorescence-based microplate reader assay
[15] = Inhibition of Escherichia coli DNA topoisomerase 4 assessed as residual activity at 1 uM using biotinylated oligonucleotide as substrate incubated for 30 mins in presence of ATP by fluorescence-based microplate reader assay relative to control
[16] = target: Topoisomerase IV (Staphylococcus aureus) (UniProt P0C1U9+P0C1S7); assay: Inhibition of Staphylococcus aureus DNA topoisomerase 4 assessed as residual activity at 1 uM using biotinylated oligonucleotide as substrate incubated for 30 mins in presence of ATP by fluorescence-based microplate reader assay relative to control; format: protein-complex assay
[17] = target: DNA gyrase (Staphylococcus aureus) (UniProt P0A0K8+P20831); assay: Inhibition of Staphylococcus aureus DNA gyrase assessed as residual activity at 1 uM using biotinylated oligonucleotide as substrate incubated for 30 mins in presence of ATP by fluorescence-based microplate reader assay relative to control; format: protein-complex assay
DNA gyrase (Staphylococcus aureus), sequence (P0A0K8 2-644 limits assumed): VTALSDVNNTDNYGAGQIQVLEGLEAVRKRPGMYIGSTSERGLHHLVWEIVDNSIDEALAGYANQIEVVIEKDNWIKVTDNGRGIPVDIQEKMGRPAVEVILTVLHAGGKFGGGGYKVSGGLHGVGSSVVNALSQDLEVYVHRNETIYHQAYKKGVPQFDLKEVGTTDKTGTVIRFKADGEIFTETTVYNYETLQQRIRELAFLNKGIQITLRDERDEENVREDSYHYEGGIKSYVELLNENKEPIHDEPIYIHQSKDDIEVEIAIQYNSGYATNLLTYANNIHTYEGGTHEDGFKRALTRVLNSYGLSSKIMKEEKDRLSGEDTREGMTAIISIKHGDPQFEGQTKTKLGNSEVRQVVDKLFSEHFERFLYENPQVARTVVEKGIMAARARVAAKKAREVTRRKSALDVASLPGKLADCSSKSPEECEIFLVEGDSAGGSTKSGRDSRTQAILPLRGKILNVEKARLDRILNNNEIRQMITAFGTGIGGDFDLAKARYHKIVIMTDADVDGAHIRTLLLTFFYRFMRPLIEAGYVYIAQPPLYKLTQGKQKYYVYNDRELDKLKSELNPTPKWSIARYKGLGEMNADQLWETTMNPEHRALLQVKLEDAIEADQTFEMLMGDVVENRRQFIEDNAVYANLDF
DNA gyrase (Staphylococcus aureus), sequence (P20831 whole entry partner): as the sequence (P20831 whole entry) above

| SMILES | inhibition at 50 µM (Klebsiella pneumoniae) [%] | inhibition at 50 µM (Acinetobacter baumannii) [%] | inhibition at 50 µM (Escherichia coli [2]) [%] | inhibition at 50 µM (Escherichia coli [3]) [%] | inhibition at 50 µM (Enterococcus faecium [4]) [%] | inhibition at 50 µM (Staphylococcus aureus) [%] | inhibition at 50 µM (Pseudomonas aeruginosa) [%] | inhibition at 50 µM (Klebsiella aerogenes) [%] | inhibition at 50 µM (Escherichia coli [7]) [%] | IC50 (DNA gyrase [9]) [nM] | IC50 (Topoisomerase IV) [nM] | IC50 (DNA gyrase [13]) [nM] | IC50 [14] [nM] | further results |
| --- | --- | --- | --- | --- | --- | --- | --- | --- | --- | --- | --- | --- | --- | --- |
| Cc1[nH]c(C(=O)Nc2ccc(C(=O)N[C@H](C)C(=O)NN)cc2OC(C)C)c(Cl)c1Cl | 14 | 25 | 21 | 31 | 49 | 46 | -2 | 16 | 38 |  |  |  |  | inhibition at 50 µM (Enterococcus faecalis [1]): 85%; MIC (Enterococcus faecalis [5]): 12.5 µM (≈ 5.7 µg/mL); Activity [6]: 89% |
| CCOC(=O)c1cn(CC)c2cc(NC(=O)c3[nH]c(C)c(Cl)c3Cl)ccc2c1=O | 9 | 3 | 12 | -2 | 37 | -3 | -3 | 5 | 11 | 53 |  |  |  | inhibition at 72 h, 50 µM [8]: 90%; inhibition at 50 µM (Enterococcus faecalis [1]): -7%; inhibition at 72 h, 50 µM [10]: 88% |
| Cc1[nH]c(C(=O)Nc2ccc(C(=O)NCC#N)cc2)c(Cl)c1Cl | 4 | 0 | 0 | -8 | -17 | 4 | 30 | 1 | 102 | 410 |  |  |  | inhibition at 50 µM (Enterococcus faecalis [1]): 92%; MIC (Escherichia coli [11]): 12.5 µM (≈ 4.39 µg/mL); MIC (Enterococcus faecalis [5]): 25 µM (≈ 8.78 µg/mL) |
| CC(=O)NC[C@H]1CN(c2ccc(N3CCOCC3)c(F)c2)C(=O)O1 [LINEZOLID] |  |  |  |  |  |  |  |  |  |  |  |  |  | MIC (Enterococcus faecium [12]): 11.9 µM (≈ 4 µg/mL) |
| Cc1[nH]c(C(=O)Nc2ccc(C(=O)NCC(=O)O)cc2OC2CCN(C(=O)OC(C)(C)C)CC2)c(Cl)c1Cl | -9 | -12 | 9 | -2 | -1 | -10 | -3 | -8 | -5 | 86 | 7400 | 1010 | 10000 |  |
| COC(=O)CNC(=O)c1ccc(NC(=O)c2[nH]c(C)c(Cl)c2Cl)c(O[C@H]2CCNC2)c1 | -5 | 2 | 4 | 26 | 13 | 5 | 4 | -3 | 88 | 74 |  | 950 |  | Activity [15]: 90%; MIC (Escherichia coli [11]): 25 µM (≈ 11.7 µg/mL); Activity [16]: 94% |
| COC(=O)[C@@H](C)NC(=O)c1ccc(NC(=O)c2[nH]c(C)c(Cl)c2Cl)c(OC2CCNCC2)c1 | -7 | 17 | 8 | 21 | 4 | 8 | 12 | -2 | 97 | 48 |  |  |  | Activity [17]: 49%; Activity [15]: 89%; MIC (Escherichia coli [11]): 6.25 µM (≈ 3.11 µg/mL); Activity [16]: 94% |
| Cc1[nH]c(C(=O)Nc2ccc(C(=O)N[C@H](C)C(=O)O)cc2OC2CCNCC2)c(Cl)c1Cl | 5 | 5 | 1 | 14 | 3 | -1 | -3 | -3 | 35 | 6.9 | 960 |  | 15000 | Activity [17]: 31% |
| Cc1[nH]c(C(=O)Nc2ccc(C(=O)N[C@@H](C)C(=O)O)cc2OC2CCNCC2)c(Cl)c1Cl | 5 | 2 | 7 | 12 | -10 | -11 | 9 | -2 | 9 | 9.9 | 690 | 99 | 9100 |  |
| COC(=O)[C@H](C)NC(=O)c1ccc(NC(=O)c2[nH]c(C)c(Cl)c2Cl)c(OC2CCN(C(=O)OC(C)(C)C)CC2)c1 | 3 | 23 | 18 | 43 | 73 | 35 | 27 | 14 | 61 |  |  |  |  | Activity [6]: 83%; MIC (Enterococcus faecium [12]): > 25 µM |
| Cc1[nH]c(C(=O)Nc2ccc(C(=O)N[C@H](C)c3n[nH]c(=S)o3)cc2OC(C)C)c(Cl)c1Cl | 5 | 6 | 21 | 1 | 79 | 7 | 1 | 10 | 40 | 190 |  |  |  | inhibition at 72 h, 50 µM [8]: 80%; inhibition at 50 µM (Enterococcus faecalis [1]): 101%; Activity [17]: 59%; Activity [15]: 92%; inhibition at 72 h, 50 µM [10]: 85%; MIC (Enterococcus faecalis [5]): 6.25 µM (≈ 3.11 µg/mL); Activity [16]: 90%; MIC (Enterococcus faecium [12]): > 125 µM |
| COC(=O)[C@H](C)NC(=O)c1ccc(NC(=O)c2[nH]c(C)c(Cl)c2Cl)c(OC2CCNCC2)c1 | 0 | 21 | 14 | 24 | 7 | 27 | -1 | -4 | 99 | 40 | 3700 | 1600 | 18000 | MIC (Escherichia coli [11]): 6.25 µM (≈ 3.11 µg/mL) |
| Cc1[nH]c(C(=O)Nc2ccc(C(=O)NCC(=O)O)cc2OC2CCNCC2)c(Cl)c1Cl | 5 | 1 | -2 | 9 | -1 | 3 | 15 | 4 | 37 | 17 | 3700 | 960 | 7200 |  |
| Cc1[nH]c(C(=O)Nc2ccc(C(=O)NCC(=O)O)cc2O[C@H]2CCNC2)c(Cl)c1Cl | -3 | -1 | 11 | 18 | 14 | -6 | -28 | -11 | -1 | 31 | 4300 | 290 | 16000 | inhibition at 72 h, 50 µM [8]: 46%; inhibition at 72 h, 50 µM [10]: 130% |
| Cc1[nH]c(C(=O)Nc2ccc(C(=O)N[C@@H](C)C(=O)O)cc2OC2CCN(C(=O)OC(C)(C)C)CC2)c(Cl)c1Cl | -19 | 0 | 2 | 19 | 67 | -23 | 19 | -5 | 1 | 80 | 830 |  |  | Activity [17]: 26%; Activity [15]: 88%; MIC (Enterococcus faecium [12]): > 25 µM |

From ChEMBL document CHEMBL4665629, “An optimised series of substituted N-phenylpyrrolamides as DNA gyrase B inhibitors” (Eur J Med Chem, 2019)
